Legend:
[1] = LGW01-08 solubility and loading in formulations (spectrophotometric quantification); assay type: physicochemical
Protocol: Based on the solubility of the nerve specific dye, liposomes sphingomyelin cholesterol (55:45), a FDA approved lipid mix was considered first for encapsulation of the agent as the lipid vesicles have both the lipid bilayer and hydrophilic core. Two common methods for preparation of liposomes are passive and pH gradient method. For passive loading method, both LGW01-08 and lipids were dissolved in a mixture of chloroform and methanol (70:30) and subjected to rotary evaporation under vacuum. […]
The next delivery platform which could increase the solubility of the nerve dye without compromising the nerve specificity was micelles. […] Commercially available (A-B-A block), PLURONIC® ethylene oxide-propylene oxide block co-polymer capable of self-assembly to form micelle was evaluated for encapsulating the nerve dye. […] The supernatant was passed through a 0.22μ filter and analyzed for nerve dye loading.
In order to achieve higher encapsulation, two more polymeric micelle platforms: Poly(ethylene glycol)(2 k)-block-poly(D,L-lactic acid) (1.8 k) (PEG-b-PLA) and Distearyl-phosphatidylethanolamine-PEG2000 (DSPE-PEG) were evaluated. […] Triplicate samples were prepared for quantification by diluting the complex 100-fold in 10% triton solution. […]
HP-β-CD complex was prepared by the solvent casting method. […] Triplicate samples were prepared for quantification by diluting the complex 100-fold in 10% triton solution. […]

[2] = tested on: brachial plexus and sciatic nerves; assay: Formulation nerve-specificity screening after systemic administration; assay type: in vivo, mice; settings: preclinical mouse models
Protocol: Ox4 and LGW01-08 solubilized in each formulation were screened in mice following systemic administration for nerve specificity. 200 nmol of LGW01-08 in 100 μL of the four prepared formulations were administered intravenously to n=3 mice 4 hours before nerve imaging. The four hour fluorophore to imaging window had been previously shown to provide the highest nerve to background tissue fluorescence for Oxazine 4 and several other nerve specific fluorophores. Gibbs-Strauss et al. Molecular imaging 10, 91-101 (2011); Park et al. Theranostics 4, 823-833 (2014); Barth & Gibbs. Theranostics 7, 573-593 (2017). Uninjected animals were used for all control images (n=3 mice or 12 nerve sites/formulation).
Intraoperative Fluorescence Imaging Systems. A custom-built small animal imaging system capable of real-time color and fluorescence imaging was used to acquire rodent in vivo images. The imaging system consisted of a QImaging EXi Blue monochrome camera (Surrey, British Columbia, CA) for fluorescence detection with a removable Bayer filter for collecting co-registered color and fluorescence images. […] For fluorescence excitation, the PhotoFluor II was filtered with a 620±30 nm bandpass excitation filter. Resulting fluorescence was collected with a 700±37.5 nm bandpass emission filter for image collection. […] Camera exposure times ranged from 10-2000 ms for fluorescence image collection. […]

[3] = Pharmacokinetics and biodistribution by LCMS/MS; assay type: in vivo, mice; settings: 2 mg/kg
Protocol: (§1) Drug release pharmacokinetics (PK) and biodistribution (BioD) studies were completed in mice systemically administered DSPE-PEG micelle, cyclodextrin or co-solvent formulated LGW01-08 for equivalent comparison, explained as follows. Formulated LGW1-08 was injected at a 2 mg/kg dose and blood collection was completed at the time points of 0, 0.5, 1, 2, 4, 8, and 24 hours post injection (n=5 mice per time point per formulation). Following blood collection via cardiac puncture, fluorescence and color images were acquired of the brain, lungs, liver, stomach, intestines, pancreas, spleen, kidney, bladder, brachial plexus, and sciatic nerves (n=3 mice per time point per formulation). Additionally, brain, lung, heart, liver, and kidney tissues were collected for liquid chromatography mass spectroscopy (LCMS/MS) analysis (n=5 mice per time point per formulation). The pharmacokinetic parameters were calculated from blood uptake kinetics data by non-compartmental analysis using Phoenix 64 (Certara, Princeton, N.J.), including the area under the concentration versus time curve from 0 to ∞ (AUC0-∞), plasma volume of distribution (Vd), clearance (CL) and half-life (t1/2).

[4] = tested on: brachial plexus and sciatic nerves; assay: Fluorescence imaging time course after systemic administration; assay type: in vivo, mice; settings: 2 mg/kg, 24 hours after systemic administration, all formulations
Description: as §1, with “Formulated LGW1-08 was injected at a 2 mg/kg dose and blood collection was completed at the time points of 0, 0.5, 1, 2, 4, 8, and 24 hours post injection (n=5 mice per time point per formulation).” left out, “(t1/2). Nerve specific contrast and tissue biodistribution intensities were assessed for all initial testing, PK, BioD, and PD studies using the intraoperative fluorescence imaging systems to collect images of the nerves and surrounding tissue as well as the additional tissues for biodistribution assessment. Additional unstained control animals were imaged to assess tissue autofluorescence. […]” for “(t1/2).”

[5] = tested on: brachial plexus and sciatic nerves; assay: Dose ranging pharmacodynamics imaging studies; assay type: in vivo, mice; settings: two hours post injection
Protocol: Following PK studies to assess the maximum nerve signal to background ratio (SBR) for LGW1-08 in each formulation (2 hours), dose response pharmacodynamic (PD) studies were completed in mice using a dose range up to the MTD: 0.1, 0.2, 0.3, 0.6, 1, 1.5, 2, 2.5, and 3 mg/kg (n=3 mice per dose per formulation).
Nerve specific contrast and tissue biodistribution intensities were assessed for all initial testing, PK, BioD, and PD studies using the intraoperative fluorescence imaging systems to collect images of the nerves and surrounding tissue as well as the additional tissues for biodistribution assessment. Additional unstained control animals were imaged to assess tissue autofluorescence.
Custom written MatLab code was used to analyze the tissue specific fluorescence where regions of interest (ROIs) were selected using the white light images. These ROIs were then analyzed on the co-registered matched fluorescence images permitting assessment of the mean tissue intensities and nerve signal to background ratios. Intensity measurements were divided by the exposure time to obtain normalized intensity per second measurements.

nerve = settings: Park et al. Theranostics 4, 823-833 (2014); cited from earlier work
[6] = DSPE-PEG micelle and cyclodextrin formulations

Molecule | solubility [1] | nerve specificity following systemic administration [2] | blood concentrations over time ([3]; all formulations) | LGW01-08 cleared from the tissue ([3]; by 4 hours post injection) | nerve fluorescence signal intensities [4] | nerve SBRs across all doses tested ([5]; 0.1-3 mg/kg) | dose at which fluorescence intensity values were highest [5, 6] | fluorescence intensity values at the 0.1 mg/kg dose [5, 6] | dose up to which nerve to adipose background ratios increased [5] | dose up to which nerve to muscle background ratios increased [5] | nerve specificity (nerve)
CCNc1cc2oc3cc(=[N+](CC)CC)ccc-3nc2cc1C [LGW1-08, N-ethyl-N-(7-(ethylamino)-8-methyl-3H-phenoxazin-3-ylidene)ethanaminium] | 250 µg/mL | high nerve specificity | decreased quickly | 90-99% | close to baseline autofluorescence levels | No significant difference | 2.5 mg/kg | decreased to autofluorescence levels | 1.5 mg/kg | 0.6 mg/kg | –
Oxazine 4 perchlorate | – | – | – | – | – | – | – | – | – | – | high nerve-specificity

Reference: US20210236657A1, “NERVE-SPECIFIC FLUOROPHORE FORMULATIONS FOR DIRECT AND SYSTEMIC ADMINISTRATION” (OREGON HEALTH & SCIENCE UNIVERSITY, priority 2018, published 2021)
